Assay results published in PMC9043997, “LEAP2 reduces postprandial glucose excursions and ad libitum food intake in healthy men” (Cell Reports Medicine, 2022).
Where a SMILES comes first, the peptide text is derived from it. Bridges are numbered along the chain shown (N, C = ends).

Assays:
[1] = Pharmacokinetic parameters of exogenous LEAP2 in healthy men (one-compartment model); format: in vivo, human
Method: Eight healthy men, recruited among participants in the placebo-controlled, crossover study, were included in an additional clinical study investigating the kinetic parameters of exogenous LEAP2. Each participant underwent a single experimental day with intravenous infusion of LEAP2 (10 min at a rate of ∼101 pmol/kg/min followed by 110 min at ∼25 pmol/kg/min) (see Figure S1B for an overview of the clinical study design). […] Fasting schedule for participants and all instructions from 48 h prior to the experimental day were similar to the placebo-controlled, crossover study. […] LEAP2 infusion was started at timepoint 0 min and discontinued after 120 min. Blood samples were drawn every 15 min from timepoint −30 to 270 min and, additionally, at timepoints 118, 122, 124, 127 and 130 min. Plasma glucose was measured bedside every 15 min from timepoint −30 to 180 min and every 30 min from timepoint 180 to 270 min with a mean concentration of 4.85 ± 0.02 mmol/L. For analytical procedures related to plasma glucose and LEAP2 concentrations, please see the section “Human plasma analyses”. Every 30 min from time −30 to 270 min, participants rated appetite-related sensations on 100 mm VAS[34] with a score (median (interquartile range)) for hunger of 72 (59–79) mm, prospective food consumption 73 (65–82) mm, satiety 22 (14–33) mm, fullness 21 (12–31) mm, comfort 78 (72–90) mm, thirst 78 (71–89) mm and nausea 3.0 (0–9.0).
We constructed and applied a pharmacokinetic model to the data using the software Monolix (Monolix version 2019R1; Lixoft SAS, Antony, France). The parameters were estimated using the Stochastic Approximation EM algorithm.[22] The one-compartment model assumed input from both endogenous LEAP2 secretion and the exogenous LEAP2 infusion assuming that LEAP2 kinetics followed a single-exponential elimination. We assumed that the endogenous production of LEAP2 was constant i.e. not suppressed during infusion of exogenous LEAP2. This model probably represents a simplification of the actual physiological LEAP2 kinetics, but the data fitted well to model predictions.

healthy men = assay: Plasma free fatty acids, glycerol and triglycerides during LEAP2 infusion, crossover study; format: in vivo, human; conditions: mean ± SEM
Description: The infusion was terminated when participants had finished eating.
For analysis of plasma glucose, blood was distributed in fluoride heparin-coated tubes, centrifuged immediately for 30 s (12,100 g, room temperature) and measured bedside by the glucose oxidase method (YSI 2900 Biochemistry Analyzer; YSI Incorporated, Yellow Springs, Ohio, USA). For analysis of LEAP2, blood was collected in chilled K3EDTA tubes each containing 250 KIU of aprotinin. For analysis of acyl ghrelin, blood was collected in chilled K2EDTA tubes added 20 μL pefabloc (100 mg/mL; Merck Millipore, Burlington, Massachusetts, USA). Subsequently, pefabloc-treated plasma was acidified with HCl (12.5 μL 2M HCl per 500 μL plasma; Merck Millipore, Burlington, Massachusetts, USA). For analysis of glucagon, blood was collected in K2EDTA tubes. For analysis of GH, insulin, C-peptide, free fatty acids, glycerol, triglycerides and acetaminophen (paracetamol), blood was collected in tubes with lithium and heparin. All tubes were immediately cooled on ice, centrifuged for 15 min (2,000 g, 4°C) and stored at −80°C until analysis. LEAP2 concentrations were determined by an in-house radioimmunoassay directed against the N-terminal part of LEAP2. LEAP-2 was used for standards, and the tracer was a peptide composed of the 12 N-terminal amino acids of LEAP2, with a ^125I-labelled tyrosine added to the C-terminal end. The precision and accuracy of the assay were evaluated based on European Medicines Agency's guidelines for bioanalytical assay validation. […] Due to supply chain disruptions from the COVID-19 pandemic, acyl ghrelin was only measured in plasma samples at timepoints 0, 60, 105, 165 and 255 min. […] Plasma GH was measured by Immunodiagnostic system-iSYS assay (IS-3700; IDS Limited, Boldon, UK). The assay is based on chemiluminesence technology and was performed according to the manufacturer’|'s instructions. […] For analysis of glucagon, plasma was extracted in a final concentration of 70% ethanol. Glucagon was measured using a C-terminal directed antiserum (code number 4305) measuring glucagon of pancreatic origin as previously described.[40] […] Plasma insulin and C-peptide were measured using a two-sided electrochemiluminescence immunoassay (Atellica IM Analyzer; Siemens Healthcare, Ballerup, Denmark). Plasma triglycerides and acetaminophen were analyzed by spectrophotometric methods following enzymatic hydrolysis and oxidation (Siemens Atellica CH 930; Siemens Healthcare, Ballerup, Denmark). Plasma concentrations of free fatty acids and glycerol were determined by enzymatic methods modified to run on a COBAS 6000 automatic analyzer (Roche, Rødovre, Denmark) using a NEFA-HR assay (Wako Chemicals, Neuss, Germany) and glycerol assay (Randox Laboratories, Crumlin, UK), respectively.
Unless otherwise stated, results are presented as mean ± SEM. Baseline values were calculated as a mean of timepoints −35, −10 and 0 min or, when only available −10 and 0 min. Baseline values for the postprandial period were calculated as a mean of timepoint 60 min. Calculations of AUC were based on the trapezoidal rule. AUC values are reported for the period 0 to 255 min. To assess the fasting and postprandial periods separately, AUC values are reported for the periods 0 to 60 min and 60 to 255 min, respectively. Student’s paired t test was used to test for differences in baseline, peak, time to peak, AUC and mean values and ad libitum food intake in men.

[2] = healthy men n = 20, LEAP2 day, before infusion
[3] = healthy men n = 20, iv LEAP2 ~25 pmol/kg/min, 0 to 255 min
[4] = healthy men n = 20, iv LEAP2 ~25 pmol/kg/min, fasting period
[5] = healthy men n = 20, iv LEAP2 ~25 pmol/kg/min, liquid mixed meal at 65 min
[6] = healthy men n = 20, iv LEAP2 ~25 pmol/kg/min, postprandial period
[7] = healthy men n = 20, iv LEAP2 ~25 pmol/kg/min, time = 60 min

With `CC[C@H](C)[C@@H]1NC(=O)[C@@H]2CSSC[C@@H](C(=O)N[C@@H](CO)C(=O)N[C@@H](CC(C)C)C(=O)N[C@@H](CO)C(=O)N[C@H](C(=O)N[C@@H](C)C(=O)N[C@@H](CCC(N)=O)C(=O)N[C@@H](CCC(=O)O)C(=O)O)C(C)C)NC(=O)[C@H](CCCNC(=N)N)NC(=O)[C@H](CCCNC(=N)N)NC(=O)[C@H](CCCCN)NC(=O)[C@H](CCCNC(=N)N)NC(=O)[C@H](CSSC[C@H](NC(=O)[C@H](CO)NC(=O)[C@H](C)NC(=O)CNC(=O)[C@@H](NC(=O)[C@@H]3CCCN3C(=O)[C@H](CCCNC(=N)N)NC(=O)[C@H](CC(C)C)NC(=O)[C@H](CO)NC(=O)[C@@H](NC(=O)CNC(=O)[C@H](CCCNC(=N)N)NC(=O)[C@H](Cc3c[nH]c4ccccc34)NC(=O)[C@H](Cc3ccccc3)NC(=O)[C@@H]3CCCN3C(=O)[C@@H](NC(=O)[C@@H](N)CCSC)[C@@H](C)O)C(C)C)[C@@H](C)CC)C(=O)N[C@@H](CCCNC(=N)N)C(=O)N[C@@H](CC(=O)O)C(=O)N[C@@H](CC(=O)O)C(=O)N[C@@H](CO)C(=O)N[C@@H](CCC(=O)O)C(=O)N2)NC(=O)[C@H](CC(C)C)NC(=O)[C@H](CCCNC(=N)N)NC(=O)[C@H]([C@@H](C)O)NC1=O` [LEAP2, liver-expressed antimicrobial peptide 2] (H-MTPFWRGVSLRPIGASCRDDSECITRLCRKRRCSLSVAQE-OH; disulfide 17-28, 23-33 (inferred); N-terminus and C-terminus assumed) the “half-life of LEAP2” value ([1]; healthy men n = 8, iv 10 min at ~101 pmol/kg/min then 110 min at ~25 pmol/kg/min, plasma, radioimmunoassay, one-compartment model (Monolix)) was roughly 9 min, the “endogenous production rate of LEAP2” value ([1]; healthy men n = 8, one-compartment model assuming constant endogenous production) was 1.9 ± 0.14 nmol/min and the Vd ([1]; male, human, plasma, healthy men n = 8, iv 10 min at ~101 pmol/kg/min then 110 min at ~25 pmol/kg/min, 150-min wash-out, one-compartment model (Monolix), read-out: volume of distribution of LEAP2) was 14 ± 5.3 L. For the same compound, the clearance ([1]; male, human, plasma, healthy men n = 8, iv 10 min at ~101 pmol/kg/min then 110 min at ~25 pmol/kg/min, one-compartment model (Monolix), read-out: metabolic clearance rate of LEAP2) was 860 ± 170 mL/min, the half-life ([1]; male, human, healthy men n = 8, iv 10 min at ~101 pmol/kg/min then 110 min at ~25 pmol/kg/min, plasma, radioimmunoassay, one-compartment model (Monolix)) was 9.1 ± 2.5 min and the “Free fatty acids Baseline” value (healthy men; [2]) was 339 ± 18.4 µmol/L. For the same compound, the “Glycerol Baseline” value (healthy men; [2]) was 26.6 ± 2.45 µmol/L, the “Triglycerides Baseline” value (healthy men; [2]) was 920 ± 62.2 µmol/L and the “Free fatty acids AUC” value (healthy men; [3]) was 43.2 ± 2.49 mmol·min/L. For the same compound, the “Glycerol AUC” value (healthy men; [3]) was 4.87 ± 0.57 mmol·min/L, the “Triglycerides AUC” value (healthy men; [3]) was 263 ± 16.7 mmol·min/L and the “Free fatty acids AUC0–60 min” value (healthy men; [4]) was 18.9 ± 1.18 mmol·min/L. For the same compound, the “Glycerol AUC0–60 min” value (healthy men; [4]) was 1.65 ± 0.15 mmol·min/L, the “Triglycerides AUC0–60 min” value (healthy men; [4]) was 53.5 ± 3.14 mmol·min/L and the “Free fatty acids Nadir” value (healthy men; [5]) was 58.4 ± 3.94 µmol/L. The “Free fatty acids Time to nadir” value (healthy men; [5]) was 155 ± 7.63 min, the “Glycerol Nadir” value (healthy men; [5]) was 11.7 ± 2.12 µmol/L and the “Glycerol Time to nadir” value (healthy men; [5]) was 144 ± 10.2 min. For the same compound, the “Triglycerides Peak” value (healthy men; [5]) was 1,275 ± 84.8 μmol/L, the “Triglycerides Time to peak” value (healthy men; [5]) was 195 ± 5.33 min and the “Free fatty acids AUC60–255 min” value (healthy men; [6]) was 24.4 ± 1.51 mmol·min/L. The “Glycerol AUC60–255 min” value (healthy men; [6]) was 3.22 ± 0.44 mmol·min/L, the “Triglycerides AUC60–255 min” value (healthy men; [6]) was 210 ± 13.8 mmol·min/L and the “Free fatty acids Postprandial baseline” value (healthy men; [7]) was 272 ± 16.4 µmol/L. The “Glycerol Postprandial baseline” value (healthy men; [7]) was 22.9 ± 2.12 µmol/L and the “Triglycerides Postprandial baseline” value (healthy men; [7]) was 847 ± 48.3 µmol/L.
